According to ChEMBL document CHEMBL1141235, “Synthesis and preliminary evaluation of [3H]PSB-0413, a selective antagonist radioligand for platelet P2Y12 receptors” (Bioorg Med Chem Lett, 2005):

Target: P2Y purinoceptor 12 (Homo sapiens, UniProt Q9H244)
Assay: Binding affinity to P2Y12 receptor expressed in human platelets from 0.047 to 50 nM

Sequence of P2Y purinoceptor 12 (Q9H244 whole entry): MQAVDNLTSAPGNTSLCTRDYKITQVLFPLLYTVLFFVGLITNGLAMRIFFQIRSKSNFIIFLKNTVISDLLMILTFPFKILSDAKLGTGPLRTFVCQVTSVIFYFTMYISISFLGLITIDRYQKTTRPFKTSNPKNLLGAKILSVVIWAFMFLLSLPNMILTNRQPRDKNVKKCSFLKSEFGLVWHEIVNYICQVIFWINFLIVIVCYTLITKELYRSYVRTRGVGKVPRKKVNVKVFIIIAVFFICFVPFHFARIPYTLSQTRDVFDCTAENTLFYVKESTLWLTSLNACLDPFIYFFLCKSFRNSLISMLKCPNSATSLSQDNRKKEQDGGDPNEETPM

## [3H]C([3H])([3H])C([3H])([3H])CSc1nc(N)c2ncn([C@@H]3O[C@H](COP(=O)(O)OP(=O)(O)C(Cl)(Cl)P(=O)(O)O)[C@@H](O)[C@H]3O)c2n1
  Kd: 4.57 nM
